In patent publication US11987589B2, “Heterocyclic flavone derivatives, compositions, and methods related thereto” (Emory University, priority 2018, dated 2024):
Entries after “also recorded” stand apart in the source; their conditions may differ. Like-named read-outs stand apart in the source and are kept apart here.

Legend:
[1] = human, hepatocytes
[2] = mouse, hepatocytes
Plasma Stability (human) = type: in vitro ADME
Plasma Stability (mouse) = type: in vitro ADME
BBB-PAMPA Permeability = type: in vitro ADME
TrkB [3] = target: T1, TrkB (Rattus norvegicus, UniProt Q63604); assay: TrkB activation in rat TrkB stably transfected SN56 cells (T48), immunoblotting; type: cell-based
T1 construct: expressed in transfected cells

T48 cells = assay: Protection from staurosporine (STS)-induced apoptosis, MTT assay, T48 cells; type: cell-based
Procedure: Cytoprotective effects were tested. To examine whether these compounds protect cells from staurosporine (STS)-induced apoptosis, MTT assays were conducted using TrkB stable transfected cells or TrkB deficient SN56 cells.

TrkB [4] = assay: Endogenous TrkB activation in DIV13 primary cortical cultures, immunoblotting; type: cell-based; settings: 15 min
Procedure: Endogenous TrkB activation in primary neurons were tested in DIV13 primary cortical cultures. The neurons were treated with the two compounds with doses for 15 min. The lysates were analyzed by immunoblotting with antibodies.

in vivo [5] = settings: ICR, mouse, po, 5 mg/kg
Procedure: The compounds were orally administered into wild-type mice or 3×Tg, an Alzheimer's disease (AD) mouse model. […] Pharmacokinetic analysis was performed using non-compartmental methods.

in vivo [6] = settings: mouse; for B/P Ratio, individual animal / Plasma concentration, Mean / Kp at 1 h / Kp at 2 h / Kp at 4 h: male; for Kp at 1 h / Kp at 2 h / Kp at 4 h: B/P Ratio
Procedure: The concentration ratio of brain/plasma was calculated, and PK analysis was performed using a non-compartmental method.

TrkB [7] = target: T2, TrkB (Mus musculus, UniProt P15209); assay: TrkB activation in brain of 5×FAD mice after chronic oral administration; type: in vivo
T2 construct: from tissue; host or cells: brain (hippocampus) of 5xFAD mice
Description: After 3 months of drug treatment, TrkB activation was monitored in the mouse brain by immunofluorescence with anti-phosphorylated TrkB (p-TrkB) antibody.

5×FAD mice [8] = assay: Synaptic loss and plasticity in 5×FAD mice (Golgi staining, electron microscopy, immunoblotting, LTP); type: in vivo, mouse
Procedure: The dendritic spines from apical dendritic layer of the CA1 region were analyzed by Golgi staining. (Scale bar, […]). On top is quantitative analysis of the spine density.
Synaptic loss is believed to be the basis of cognitive impairment in the early phase of Alzheimer's disease. […] The density of dendritic spines along individual dendrites of pyramidal neurons were assessed by Golgi staining. […] Since one dendritic spine can form more than one synapse, the densities of synapse in the CA1 area were quantified in 5×FAD mice brain by electron microscopy. […] Immunoblotting was done using pre-synaptic markers (synaptotagmin) and post-synaptic markers (GluR1, PSD95 and spinophilin).

Aβ = Aβ deposition in 5×FAD mice (immunohistochemistry, thioflavin-S, ELISA); type: in vivo, mouse
Procedure: The deposition of Aβ was tested by immunohistochemistry with anti-AP antibody.

5×FAD mice [9] = assay: Morris water maze test in 5×FAD mice; type: in vivo, mouse
Procedure: The hippocampus-dependent spatial memory of 5×FAD mice was tested by Morris water maze test. The average latency and swim path length for each of the 5 acquisition days were calculated and plotted. […] The memory recall for the platform location was assessed in the probe trail when the platform was removed, and the mice were allowed to search for 60 s.

[10] = tested on: Delta-secretase (AEP, asparagine endopeptidase); assay: AEP activation and APP and Tau proteolytic cleavage in 5×FAD mice; type: in vivo, mouse
Procedure: The processing of APP and Tau by AEP was evaluated by western blot.
Delta-secretase (AEP, asparagine endopeptidase) cleaves both APP and Tau, mediating AD pathogenesis. […] To further investigate APP proteolytic cleavage activity by AEP, immunofluorescent co-staining was conducted on 5×FAD brain section with anti-APP C585 and AEP antibodies.

Water solubility = type: physicochemical
IL-6 = assay: Inflammatory factor IL-6 in 5×FAD mouse brains; type: in vivo
[11] = In vitro plasma, hepatocyte and liver microsomal stability assays (summary statement); type: in vitro ADME
[12] = Hepatocyte Stability (human); settings: hepatocytes
[13] = Hepatocyte Stability (mouse); settings: hepatocytes
[14] = Microsomal Intrinsic Clearance (human); settings: liver microsomes; for microsomal CLint: Human microsomes
[15] = Microsomal Intrinsic Clearance (mouse); settings: liver microsomes; for microsomal CLint: Mouse microsomes
[16] = ICR, iv, 2 mg/kg, individual animal
[17] = NADPH-dependent CLint, with NADPH
[18] = NADPH-dependent T1/2, Human microsomes, with NADPH
[19] = NADPH-free T1/2, Human microsomes, NADPH-free
[20] = NADPH-dependent T1/2, Mouse microsomes, with NADPH
[21] = NADPH-free T1/2, Mouse microsomes, NADPH-free

T1 sequence (Q63604 32-821): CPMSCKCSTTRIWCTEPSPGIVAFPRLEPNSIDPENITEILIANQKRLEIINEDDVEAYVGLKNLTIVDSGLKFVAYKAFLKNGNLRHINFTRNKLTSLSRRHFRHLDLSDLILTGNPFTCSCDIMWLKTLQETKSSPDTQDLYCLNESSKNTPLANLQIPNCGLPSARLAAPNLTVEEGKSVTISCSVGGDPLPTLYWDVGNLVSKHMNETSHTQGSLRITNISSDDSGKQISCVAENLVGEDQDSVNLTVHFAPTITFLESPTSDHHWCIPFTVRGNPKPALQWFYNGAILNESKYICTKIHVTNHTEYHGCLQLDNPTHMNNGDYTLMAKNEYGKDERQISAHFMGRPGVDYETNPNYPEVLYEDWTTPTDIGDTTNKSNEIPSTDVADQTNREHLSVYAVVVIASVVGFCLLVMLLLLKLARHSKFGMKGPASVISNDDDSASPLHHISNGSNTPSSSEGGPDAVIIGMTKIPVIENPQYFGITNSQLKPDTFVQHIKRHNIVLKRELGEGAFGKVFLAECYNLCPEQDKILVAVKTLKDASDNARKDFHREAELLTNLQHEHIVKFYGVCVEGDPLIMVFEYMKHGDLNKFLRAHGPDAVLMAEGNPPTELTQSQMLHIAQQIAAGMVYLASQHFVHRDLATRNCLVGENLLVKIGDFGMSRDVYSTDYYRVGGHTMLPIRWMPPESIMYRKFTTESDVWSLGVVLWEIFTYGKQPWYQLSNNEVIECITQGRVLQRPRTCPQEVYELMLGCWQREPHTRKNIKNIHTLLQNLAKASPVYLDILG
T2 sequence (P15209 32-821): as the sequence (Q63604 32-821) above, with M3T, T9S, T10A, I32V, K63R, G84S, T153M, I185L, T394S, N770S counted along it

## O=c1ccc2ccc(O)cc2o1 [7-OH-Coumarin]
[1]
  Avg % Remaining at Last Point: 7.17%
  Clearance: 88.5 μl/min/million cells
  Half Life: 0.262 h
[2]
  Avg % Remaining at Last Point: 38.8%
  Clearance: 63.2 μl/min/million cells
  Half Life: 0.365 h

## CC(=O)CC(c1ccccc1)c1c(O)c2ccccc2oc1=O (stereo not shown) [Warfarin, reference compound]
Plasma Stability (human)
  Avg % Remaining at Last Point: 93.6%
Plasma Stability (mouse)
  Avg % Remaining at Last Point: 80.8%

## N#Cc1ccc(-c2cc(=O)c3ccc4[nH]c(C(F)(F)F)nc4c3o2)cc1 [CF3-CN, 4-(6-oxo-2-(trifluoromethyl)-3,6-dihydrochromeno[7,8-d]imidazol-8-yl)benzonitrile]
BBB-PAMPA Permeability; Test Conc. 10 μM
  Pe: 3.09
  recovery at 10 μM: 89.9%
Plasma Stability (human)
  Avg % Remaining at Last Point: 94.2%
  half-life: > 8 h
Plasma Stability (mouse)
  Avg % Remaining at Last Point: 107%
  half-life: > 8 h
TrkB [3]; treated 15 min, immunoblotting, read-out: EC50 of p-TrkB 706 and 816 activation
  EC50: 21.6 nM
T48 cells
  EC50: 26.7 nM
TrkB [4]
  TrkB activation in primary neurons: dose-dependent effect in triggering TrkB activation
In vivo [5]
  AUC: 68500 ng·h/mL
In vivo [6]; ICR, iv, 2 mg/kg
  Cmax: 12700 ng/mL
  Tmax: 4.8 min
In vivo [6]; ICR, iv, 2 mg/kg, 1 h
  B/P Ratio, individual animal: 0.01
  Plasma concentration, Mean: 5288.5 ng/mL
In vivo [6]; ICR, iv, 2 mg/kg, 2 h
  B/P Ratio, individual animal: 0.01
  Plasma concentration, Mean: 2154.5 ng/mL
In vivo [6]; ICR, iv, 2 mg/kg, 4 h
  Plasma concentration, Mean: 544.8 ng/mL
In vivo [6]; ICR, iv, 2 mg/kg, Mean
  Kp at 1 h: 0.01
  Kp at 2 h: 0.01
  Kp at 4 h: 0.02
In vivo [6]; [16]
  Kp at 1 h: 0.02
  Kp at 2 h: 0.01
  Kp at 4 h: 0.02
In vivo [6]
  passage of the blood-brain barrier: can pass the blood-brain barrier
TrkB [7]; oral 3 mg/kg, anti-p-TrkB Y816 immunofluorescence
  TrkB activation in the hippocampus: provoked TrkB activation in the hippocampus
TrkB [7]; oral, 3 months of treatment
  total TrkB level in mouse brain: not total TrkB level were notably elevated
TrkB [7]; oral, 3 months of treatment, vs vehicle
  TrkB activation (p-TrkB signals) in mouse brain: markedly activated
TrkB [7]; oral, 3 months, vs vehicle control
  phosphorylation of TrkB receptors and downstream AKT and ERK/MAPK pathways: more prominently phosphorylated
5×FAD mice [8]; fEPSPs induced by 3×TBS, vs vehicle
  LTP (long-term potentiation): increased LTP; also recorded: reversed the LTP impairment
5×FAD mice [8]; repeated oral administration
  synaptic markers (synaptotagmin, GluR1, PSD95, spinophilin), immunoblotting: reversed the reduction of synaptic markers
5×FAD mice [8]; repeated oral administration, CA1 area
  synaptic density (electron microscopy): remarkably reversed the loss of synaptic density in a dose-dependent way
5×FAD mice [8]; repeated oral administration, CA1 region
  density of dendritic spines (Golgi staining): noticeably rescued; also recorded: prevents or reverses the synaptic loss
Aβ; cortex and hippocampus, vs vehicle control
  number of plaques and plaque area fraction: significantly decreased
Aβ; differences not statistically significant
  Aβ42 concentrations (ELISA): reduction trend
Aβ; oral, vs vehicle group
  Aβ deposition (immunohistochemistry): significantly lower; also recorded: decreases Aβ plaque deposition
5×FAD mice [9]; Morris water maze, 5 acquisition days
  learning impairment, area under curve (AUC) of latency: attenuated; also recorded: improves the spatial learning and memory
5×FAD mice [9]; Morris water maze, no significant statistic differences
  AUC of the swim path distance: reduction trend
5×FAD mice [9]; probe trial, 60 s
  percentage of time spent in target quadrant: significantly higher percentage of time in the target quadrant
[10]; 5×FAD brain section
  Tau N368 staining: repressed
[10]; 5×FAD brain section, immunofluorescent co-staining
  APP C585 immuno-signals: strongly inhibited
[10]; 5×FAD mice, 3 mg/kg
  AEP activity (enzymatic assay): blocked
[10]; 5×FAD mice, immunofluorescence
  AEP expression in Hippocampus: progressively attenuated
[10]; 5×FAD mouse brains
  Mature and active AEP (immunoblotting): decreased; also recorded: significantly inhibited AEP activation
[10]; 5×FAD mouse brains, western blot
  AEP-cleaved APP N373, N585 and Tau N368 truncates: reduction; also recorded: attenuated Tau and APP cleavage
Water solubility
  water solubility (comparison): more water soluble than RM-CN
IL-6
  inflammatory factors IL-6: repressed
[11]
  stability (comparison): more stable than RM-CN
[12]
  Avg % Remaining at Last Point: 97.2%
  half-life: > 8 h
  hepatocyte CLint: < 2.9 µL/min/1e6 cells
[13]
  Avg % Remaining at Last Point: 94.8%
  half-life: > 8 h
  hepatocyte CLint: < 2.9 µL/min/1e6 cells
[14]; [17]
  microsomal CLint: < 12.8 µL/min/mg
[14]; [18]
  half-life: > 3 h
[14]; NADPH-free CLint, NADPH-free
  microsomal CLint: < 12.8 µL/min/mg
[14]; [19]
  half-life: > 3 h
[15]; [17]
  microsomal CLint: < 12.8 µL/min/mg
[15]; [20]
  half-life: > 3 h
[15]; NADPH-free CLint, NADPH-free
  microsomal CLint: < 12.8 µL/min/mg
[15]; [21]
  half-life: > 3 h

## CC(C)NCC(O)COc1ccc(CC(N)=O)cc1 (stereo not shown) [Atenolol, reference compound]
BBB-PAMPA Permeability; Test Conc. 10 μM
  recovery at 10 μM: 84.6%

## Cn1c(=O)[nH]c2ccc3c(=O)cc(-c4ccc(C#N)cc4)oc3c21 [RM-CN, 4-(1-methyl-2,6-dioxo-1,2,3,6-tetrahydrochromeno[7,8-d]imidazol-8-yl)benzonitrile]
BBB-PAMPA Permeability; Test Conc. 1 μM
  Pe: 2.82
  recovery at 1 μM: 71%
Plasma Stability (human)
  Avg % Remaining at Last Point: 91.1%
  half-life: > 8 h
Plasma Stability (mouse)
  Avg % Remaining at Last Point: 80.3%
  half-life: 5.75 h
TrkB [3]; different doses, 15 min
  effects on p-TrkB 816: behaved inversely
  p-Akt/p-MAPK downstream signals: increased in a dose-dependent manner
  p-TrkB 706 activation: activated p-TrkB 706 gradually
T48 cells
  EC50: 12.5 nM
TrkB [4]
  TrkB activation in primary neurons: dose-dependent effect in triggering TrkB activation
[12]
  Avg % Remaining at Last Point: 54.8%
  half-life: 2.22 h
  hepatocyte CLint: 10.5 µL/min/1e6 cells
[13]
  Avg % Remaining at Last Point: 67.1%
  half-life: 4.58 h
  hepatocyte CLint: 5.04 µL/min/1e6 cells
[14]; [17]
  microsomal CLint: 30.3 µL/min/mg
[14]; [18]
  half-life: 1.27 h
[14]; NADPH-free CLint, NADPH-free
  microsomal CLint: < 12.8 µL/min/mg
[14]; [19]
  half-life: > 3 h
[15]; [17]
  microsomal CLint: 231 µL/min/mg
[15]; [20]
  half-life: 0.167 h
[15]; NADPH-free CLint, NADPH-free
  microsomal CLint: < 12.8 µL/min/mg
[15]; [21]
  half-life: > 3 h

## Cc1ncc2n1-c1ccc(Cl)cc1C(c1ccccc1F)=NC2 [Midazolam, reference compound]
[12]
  Avg % Remaining at Last Point: 9.82%
  half-life: 0.595 h
  hepatocyte CLint: 38.8 µL/min/1e6 cells
[13]
  Avg % Remaining at Last Point: 34.0%
  half-life: 0.657 h
  hepatocyte CLint: 35.1 µL/min/1e6 cells
[14]; [17]
  microsomal CLint: 511 µL/min/mg
[14]; [18]
  half-life: 0.0753 h
[14]; NADPH-free CLint, NADPH-free
  microsomal CLint: < 12.8 µL/min/mg
[14]; [19]
  half-life: > 3 h
[15]; [17]
  microsomal CLint: 1100 µL/min/mg
[15]; [20]
  half-life: 0.035 h
[15]; NADPH-free CLint, NADPH-free
  microsomal CLint: < 12.8 µL/min/mg
[15]; [21]
  half-life: > 3 h

## CC(C)[N+](C)(CCOC(=O)C1c2ccccc2Oc2ccccc21)C(C)C [Propantheline, reference compound]
Plasma Stability (human)
  Avg % Remaining at Last Point: 3.15%
  half-life: 0.398 h
Plasma Stability (mouse)
  half-life: 0.37 h
